Data as given in patent publication US12522583B2, “Benzimidazole derivatives and aza-benzimidazole derivatives as Janus kinase 2 inhibitors and uses thereof” (Dana-Farber Cancer Institute, Inc., priority 2018, dated 2026).

Legend:
Assay in all cases: KINOMEscan
Type in all cases: binding
Conditions in all cases: read-out: percent control
[1] = biological target: TAOK1 (Homo sapiens (Human), UniProt Q7L7X3)
Text: (§1) Example 2. In Vitro Kinase Selectivity Profiling of the Compounds of the Present Disclosure

[2] = biological target: TIE1 (Homo sapiens (Human), UniProt P35590)
Text: as §1

[3] = biological target: RET(V804L) (Homo sapiens (Human), UniProt P07949, V804L)
Text: as §1

[4] = biological target: ABL1-phosphorylated (Homo sapiens (Human), UniProt P00519)
Text: as §1

[5] = biological target: MRCKB (Homo sapiens (Human), UniProt Q9Y5S2)
Text: as §1

[6] = biological target: PKMYT1 (Homo sapiens (Human), UniProt Q99640)
Text: as §1

[7] = biological target: FGFR3(G697C) (Homo sapiens (Human), UniProt P22607, G697C)
Sequence of FGFR3(G697C) (P22607 23-806 G697C): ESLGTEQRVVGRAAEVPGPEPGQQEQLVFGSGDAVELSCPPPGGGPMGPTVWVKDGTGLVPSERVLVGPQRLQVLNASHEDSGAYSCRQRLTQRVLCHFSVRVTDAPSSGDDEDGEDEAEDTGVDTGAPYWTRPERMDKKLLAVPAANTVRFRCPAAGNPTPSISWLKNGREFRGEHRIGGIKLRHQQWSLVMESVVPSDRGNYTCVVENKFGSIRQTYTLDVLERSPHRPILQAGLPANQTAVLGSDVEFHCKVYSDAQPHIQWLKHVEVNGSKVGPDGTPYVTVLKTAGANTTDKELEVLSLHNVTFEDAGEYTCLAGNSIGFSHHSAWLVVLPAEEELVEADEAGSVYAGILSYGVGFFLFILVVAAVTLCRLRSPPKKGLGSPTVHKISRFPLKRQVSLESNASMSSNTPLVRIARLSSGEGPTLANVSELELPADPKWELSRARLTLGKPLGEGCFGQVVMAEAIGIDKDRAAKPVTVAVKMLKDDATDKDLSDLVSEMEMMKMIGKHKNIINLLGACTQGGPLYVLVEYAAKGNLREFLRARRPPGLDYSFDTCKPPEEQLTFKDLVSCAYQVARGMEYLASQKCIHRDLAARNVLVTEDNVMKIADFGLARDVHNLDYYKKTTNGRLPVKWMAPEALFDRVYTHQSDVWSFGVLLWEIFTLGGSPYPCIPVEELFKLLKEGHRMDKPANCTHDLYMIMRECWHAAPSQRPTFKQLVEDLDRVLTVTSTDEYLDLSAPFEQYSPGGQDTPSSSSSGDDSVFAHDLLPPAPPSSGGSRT
Text: as §1

[8] = biological target: ABL1(Y253F)-phosphorylated (Homo sapiens (Human), UniProt P00519, Y253F)
Text: as §1

[9] = biological target: TLK2 (Homo sapiens (Human), UniProt Q86UE8)
Text: as §1

[10] = biological target: BRAF(V600E) (Homo sapiens (Human), UniProt P15056, V600E)
Sequence of BRAF(V600E) (P15056 whole entry V600E): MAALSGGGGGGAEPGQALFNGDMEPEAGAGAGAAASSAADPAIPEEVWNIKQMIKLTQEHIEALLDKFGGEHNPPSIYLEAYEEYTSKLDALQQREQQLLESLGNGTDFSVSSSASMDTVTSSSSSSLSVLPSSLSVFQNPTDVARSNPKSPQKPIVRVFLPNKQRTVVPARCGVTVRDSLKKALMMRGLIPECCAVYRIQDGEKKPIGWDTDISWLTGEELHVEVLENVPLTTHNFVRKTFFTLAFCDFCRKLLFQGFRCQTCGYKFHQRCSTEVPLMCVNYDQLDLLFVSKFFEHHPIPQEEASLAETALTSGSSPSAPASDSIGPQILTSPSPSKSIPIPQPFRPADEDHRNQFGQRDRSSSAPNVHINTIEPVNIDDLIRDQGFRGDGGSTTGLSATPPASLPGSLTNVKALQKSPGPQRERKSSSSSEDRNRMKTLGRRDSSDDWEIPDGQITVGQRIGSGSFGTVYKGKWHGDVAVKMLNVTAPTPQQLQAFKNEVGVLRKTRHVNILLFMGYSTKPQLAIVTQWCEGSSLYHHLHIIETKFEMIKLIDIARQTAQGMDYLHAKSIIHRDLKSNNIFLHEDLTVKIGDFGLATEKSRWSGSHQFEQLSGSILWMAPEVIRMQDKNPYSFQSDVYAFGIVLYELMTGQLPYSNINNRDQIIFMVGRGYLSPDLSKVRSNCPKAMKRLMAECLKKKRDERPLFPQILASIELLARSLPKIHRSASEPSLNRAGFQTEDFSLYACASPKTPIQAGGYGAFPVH
Text: as §1

[11] = biological target: MST1R (Homo sapiens (Human), UniProt Q04912)
Text: as §1

[12] = biological target: PIM1 (Homo sapiens (Human), UniProt P11309)
Sequence of PIM1 (P11309 whole entry): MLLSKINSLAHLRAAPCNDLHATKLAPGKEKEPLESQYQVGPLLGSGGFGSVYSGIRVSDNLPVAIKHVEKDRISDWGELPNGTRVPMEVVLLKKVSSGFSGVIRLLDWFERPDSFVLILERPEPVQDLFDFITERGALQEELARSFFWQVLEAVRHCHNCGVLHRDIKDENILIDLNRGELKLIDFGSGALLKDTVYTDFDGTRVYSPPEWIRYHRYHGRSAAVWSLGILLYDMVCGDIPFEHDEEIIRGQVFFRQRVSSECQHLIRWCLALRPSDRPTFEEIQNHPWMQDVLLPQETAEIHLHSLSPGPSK
Text: as §1

[13] = biological target: EIF2AK1 (Homo sapiens (Human), UniProt Q9BQI3)
Text: as §1

[14] = biological target: MST2 (Homo sapiens (Human), UniProt Q13188)
Text: as §1

[15] = biological target: VEGFR2 (Homo sapiens (Human), UniProt P35968)
Text: as §1

[16] = biological target: MST1 (Homo sapiens (Human), UniProt Q13043)
Text: as §1

[17] = biological target: JAK3(JH1domain-catalytic) (Homo sapiens (Human), UniProt P52333)
Text: as §1

[18] = biological target: KIT(A829P) (Homo sapiens (Human), UniProt P10721, A829P)
Text: as §1

[19] = biological target: TRKC (Homo sapiens (Human), UniProt Q16288)
Text: as §1

[20] = biological target: GRK3 (Homo sapiens (Human), UniProt P35626)
Text: as §1

[21] = biological target: PCTK1 (Homo sapiens (Human), UniProt Q00536)
Text: as §1

[22] = biological target: TGFBR1 (Homo sapiens (Human), UniProt P36897)
Text: as §1

[23] = biological target: PHKG1 (Homo sapiens (Human), UniProt Q16816)
Text: as §1

[24] = biological target: AKT3 (Homo sapiens (Human), UniProt Q9Y243)
Text: as §1

[25] = biological target: SNARK (Homo sapiens (Human), UniProt Q9H093)
Text: as §1

[26] = biological target: TIE2 (Homo sapiens (Human), UniProt Q02763)
Sequence of TIE2 (Q02763 23-1124): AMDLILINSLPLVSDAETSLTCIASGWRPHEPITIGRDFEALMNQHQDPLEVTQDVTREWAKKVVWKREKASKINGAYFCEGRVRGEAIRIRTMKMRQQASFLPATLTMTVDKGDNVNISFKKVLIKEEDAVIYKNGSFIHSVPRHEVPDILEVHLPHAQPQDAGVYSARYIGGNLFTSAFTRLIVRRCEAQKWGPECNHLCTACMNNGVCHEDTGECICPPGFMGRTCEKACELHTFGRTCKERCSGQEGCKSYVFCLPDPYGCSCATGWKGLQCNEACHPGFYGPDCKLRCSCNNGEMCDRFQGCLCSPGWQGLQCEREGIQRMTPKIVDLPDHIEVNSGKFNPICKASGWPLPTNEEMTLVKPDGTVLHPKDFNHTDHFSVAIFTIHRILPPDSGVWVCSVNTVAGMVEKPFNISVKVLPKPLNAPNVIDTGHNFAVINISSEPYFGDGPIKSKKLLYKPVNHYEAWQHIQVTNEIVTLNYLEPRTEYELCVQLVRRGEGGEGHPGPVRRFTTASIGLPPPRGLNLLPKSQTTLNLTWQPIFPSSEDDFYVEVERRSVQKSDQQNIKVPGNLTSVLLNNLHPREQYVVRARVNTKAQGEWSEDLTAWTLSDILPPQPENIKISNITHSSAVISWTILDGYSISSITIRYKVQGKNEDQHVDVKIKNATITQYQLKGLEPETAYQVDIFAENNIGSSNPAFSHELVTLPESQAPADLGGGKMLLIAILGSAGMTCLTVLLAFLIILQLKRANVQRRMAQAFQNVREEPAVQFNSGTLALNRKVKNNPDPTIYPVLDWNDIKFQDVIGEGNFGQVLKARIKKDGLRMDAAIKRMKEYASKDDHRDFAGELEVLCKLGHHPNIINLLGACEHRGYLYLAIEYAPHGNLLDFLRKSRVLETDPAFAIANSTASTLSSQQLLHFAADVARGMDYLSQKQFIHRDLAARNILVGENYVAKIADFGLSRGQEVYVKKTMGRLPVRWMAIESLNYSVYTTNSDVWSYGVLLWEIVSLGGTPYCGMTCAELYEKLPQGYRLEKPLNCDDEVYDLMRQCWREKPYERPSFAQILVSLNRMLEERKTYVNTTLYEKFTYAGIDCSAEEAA
Text: as §1

[27] = biological target: PAK7 (Homo sapiens (Human), UniProt Q9P286)
Text: as §1

[28] = biological target: ABL1(F317L)-phosphorylated (Homo sapiens (Human), UniProt P00519, F317L)
Text: as §1

[29] = biological target: DYRK2 (Homo sapiens (Human), UniProt Q92630)
Text: as §1

[30] = biological target: WEE1 (Homo sapiens (Human), UniProt P30291)
Text: as §1

[31] = biological target: JNK2 (Homo sapiens (Human), UniProt P45984)
Sequence of JNK2 (P45984 whole entry): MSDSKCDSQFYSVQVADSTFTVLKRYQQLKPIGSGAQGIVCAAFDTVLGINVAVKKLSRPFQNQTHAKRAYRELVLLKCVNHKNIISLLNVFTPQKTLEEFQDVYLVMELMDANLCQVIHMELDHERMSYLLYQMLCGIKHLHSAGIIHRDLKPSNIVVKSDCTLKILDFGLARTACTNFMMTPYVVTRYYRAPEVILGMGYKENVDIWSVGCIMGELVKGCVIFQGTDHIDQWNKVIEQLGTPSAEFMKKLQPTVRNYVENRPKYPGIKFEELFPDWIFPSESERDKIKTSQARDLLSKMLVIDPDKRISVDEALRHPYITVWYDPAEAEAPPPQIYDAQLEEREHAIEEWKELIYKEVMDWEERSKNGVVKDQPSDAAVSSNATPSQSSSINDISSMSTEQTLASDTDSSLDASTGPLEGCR
Text: as §1

[32] = biological target: CDK8 (Homo sapiens (Human), UniProt P49336)
Text: as §1

[33] = biological target: PRKCE (Homo sapiens (Human), UniProt Q02156)
Sequence of PRKCE (Q02156 whole entry): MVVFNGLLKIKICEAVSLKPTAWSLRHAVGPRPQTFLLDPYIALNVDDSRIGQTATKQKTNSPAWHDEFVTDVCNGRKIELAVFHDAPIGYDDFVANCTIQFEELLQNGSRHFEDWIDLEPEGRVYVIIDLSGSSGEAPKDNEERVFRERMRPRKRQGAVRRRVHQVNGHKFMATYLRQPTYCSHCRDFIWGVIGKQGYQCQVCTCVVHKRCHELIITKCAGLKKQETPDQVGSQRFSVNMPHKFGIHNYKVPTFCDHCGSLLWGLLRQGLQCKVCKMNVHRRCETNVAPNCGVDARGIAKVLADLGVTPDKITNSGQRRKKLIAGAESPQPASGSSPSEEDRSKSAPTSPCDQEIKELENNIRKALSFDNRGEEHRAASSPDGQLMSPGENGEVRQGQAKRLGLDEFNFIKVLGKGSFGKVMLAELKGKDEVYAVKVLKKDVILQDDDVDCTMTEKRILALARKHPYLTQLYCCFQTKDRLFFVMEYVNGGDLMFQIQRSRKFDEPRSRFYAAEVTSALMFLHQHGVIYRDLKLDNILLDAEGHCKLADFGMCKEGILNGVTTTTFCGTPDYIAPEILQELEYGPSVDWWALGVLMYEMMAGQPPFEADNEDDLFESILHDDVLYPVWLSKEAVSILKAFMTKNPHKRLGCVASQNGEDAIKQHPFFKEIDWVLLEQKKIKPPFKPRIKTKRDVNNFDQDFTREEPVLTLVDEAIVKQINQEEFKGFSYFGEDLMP
Text: as §1

[34] = biological target: PRKD3 (Homo sapiens (Human), UniProt O94806)
Sequence of PRKD3 (O94806 whole entry): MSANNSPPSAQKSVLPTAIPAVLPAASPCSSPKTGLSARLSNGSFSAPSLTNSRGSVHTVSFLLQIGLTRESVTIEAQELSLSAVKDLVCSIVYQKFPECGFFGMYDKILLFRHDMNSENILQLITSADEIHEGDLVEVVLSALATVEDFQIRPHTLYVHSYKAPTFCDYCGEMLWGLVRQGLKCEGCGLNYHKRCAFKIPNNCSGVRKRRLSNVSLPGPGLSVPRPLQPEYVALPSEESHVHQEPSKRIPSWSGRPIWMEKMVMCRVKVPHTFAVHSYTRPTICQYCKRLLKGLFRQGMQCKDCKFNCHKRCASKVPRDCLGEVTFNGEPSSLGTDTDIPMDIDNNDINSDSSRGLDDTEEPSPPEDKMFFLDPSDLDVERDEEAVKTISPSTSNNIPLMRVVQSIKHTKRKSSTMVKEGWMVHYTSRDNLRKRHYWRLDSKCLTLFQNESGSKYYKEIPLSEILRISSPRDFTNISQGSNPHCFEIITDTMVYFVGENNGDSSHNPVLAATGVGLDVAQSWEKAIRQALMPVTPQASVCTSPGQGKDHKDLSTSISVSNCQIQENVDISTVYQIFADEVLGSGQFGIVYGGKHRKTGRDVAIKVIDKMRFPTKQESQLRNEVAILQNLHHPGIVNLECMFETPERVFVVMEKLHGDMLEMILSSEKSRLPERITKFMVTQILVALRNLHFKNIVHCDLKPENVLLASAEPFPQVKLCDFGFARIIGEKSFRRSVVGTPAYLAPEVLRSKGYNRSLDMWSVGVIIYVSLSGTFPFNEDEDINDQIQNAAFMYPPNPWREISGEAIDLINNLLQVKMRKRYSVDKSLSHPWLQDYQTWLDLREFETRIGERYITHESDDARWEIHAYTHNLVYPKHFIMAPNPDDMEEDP
Text: as §1

[35] = biological target: YES (Homo sapiens (Human), UniProt P07947)
Text: as §1

[36] = biological target: EPHB4 (Homo sapiens (Human), UniProt P54760)
Text: as §1

[37] = biological target: PAK1 (Homo sapiens (Human), UniProt Q13153)
Text: as §1

[38] = biological target: GRK2 (Homo sapiens (Human), UniProt P25098)
Text: as §1

[39] = biological target: MET(M1250T) (Homo sapiens (Human), UniProt P08581, M1250T)
Text: as §1

[40] = biological target: MAP3K2 (Homo sapiens (Human), UniProt Q9Y2U5)
Text: as §1

| SMILES | remaining binding at 1 µM [1] [%] | remaining binding at 1 µM [2] [%] | remaining binding at 1 µM [3] [%] | remaining binding at 1 µM [4] [%] | remaining binding at 1 µM [5] [%] | remaining binding at 1 µM [6] [%] | remaining binding at 1 µM [7] [%] | remaining binding at 1 µM [8] [%] | remaining binding at 1 µM [9] [%] | remaining binding at 1 µM [10] [%] | remaining binding at 1 µM [11] [%] | remaining binding at 1 µM [12] [%] | remaining binding at 1 µM [13] [%] | remaining binding at 1 µM [14] [%] | remaining binding at 1 µM [15] [%] | remaining binding at 1 µM [16] [%] | remaining binding at 1 µM [17] [%] | remaining binding at 1 µM [18] [%] | remaining binding at 1 µM [19] [%] | remaining binding at 1 µM [20] [%] | further results |
| --- | --- | --- | --- | --- | --- | --- | --- | --- | --- | --- | --- | --- | --- | --- | --- | --- | --- | --- | --- | --- | --- |
| CCN1CCN(Cc2ccc(Nc3nc4ccc(Oc5ccnc(NC(C)=O)c5)cc4n3C)cc2C(F)(F)F)CC1 [Compound I-2] | 77 | 11 | 15 | 23 | 100 | 91 | 98 | 44 | 98 | 0.8 | 80 | 100 | 75 | 81 | 0.85 | 93 | 84 | 0 | 44 | 100 | remaining binding at 1 µM [21]: 84%; remaining binding at 1 µM [22]: 100%; remaining binding at 1 µM [23]: 94%; remaining binding at 1 µM [24]: 99%; remaining binding at 1 µM [25]: 100%; remaining binding at 1 µM [26]: 81%; remaining binding at 1 µM [27]: 86%; remaining binding at 1 µM [28]: 43%; remaining binding at 1 µM [29]: 83%; remaining binding at 1 µM [30]: 95%; remaining binding at 1 µM [31]: 85%; remaining binding at 1 µM [32]: 17%; remaining binding at 1 µM [33]: 100%; remaining binding at 1 µM [34]: 84%; remaining binding at 1 µM [35]: 82%; remaining binding at 1 µM [36]: 100%; remaining binding at 1 µM [37]: 88%; remaining binding at 1 µM [38]: 100%; remaining binding at 1 µM [39]: 63%; remaining binding at 1 µM [40]: 21% |
| CCN1CCN(Cc2ccc(Nc3nc4ccc(Oc5ccnc(NC(C)=O)c5)c(C)c4n3C)cc2C(F)(F)F)CC1 [Compound I-6, N-(4-(2-(4-((4-ethylpiperazin-1-yl)methyl)-3-(trifluoromethyl)phenylamino)-1,7-dimethyl-1H-benzo[d]imidazol-6-yloxy)pyridin-2-yl)acetamide] | 46 | 4 | 7.8 | 11 | 100 | 90 | 66 | 5.5 | 97 | 1.8 | 83 | 98 | 29 | 58 | 1.7 | 100 | 72 | 0 | 3.4 | 79 | remaining binding at 1 µM [21]: 68%; remaining binding at 1 µM [22]: 95%; remaining binding at 1 µM [23]: 91%; remaining binding at 1 µM [24]: 100%; remaining binding at 1 µM [25]: 100%; remaining binding at 1 µM [26]: 36%; remaining binding at 1 µM [27]: 16%; remaining binding at 1 µM [28]: 44%; remaining binding at 1 µM [29]: 97%; remaining binding at 1 µM [30]: 100%; remaining binding at 1 µM [31]: 66%; remaining binding at 1 µM [32]: 10%; remaining binding at 1 µM [33]: 92%; remaining binding at 1 µM [34]: 92%; remaining binding at 1 µM [35]: 84%; remaining binding at 1 µM [36]: 90%; remaining binding at 1 µM [37]: 77%; remaining binding at 1 µM [38]: 91%; remaining binding at 1 µM [39]: 33%; remaining binding at 1 µM [40]: 0.6% |
